Reference: patent publication US5298494A, “Monosaccharides having anti-proliferation and anti-inflammatory activity, compositions and uses thereof” (Greenwich Pharmaceuticals Incorporated, priority 1993, dated 1994)
Read-outs that look alike come from different tables or passages of the source.

Tested on: T lymphocytes (normal mouse spleen cells) stimulated with ConA
Assay: Mouse Spleen Cell ConA Blastogenesis Assay
Assay type: cell-based, mouse (C57Bl/6)
Details: Mus musculus, T-lymphocyte; for inhibition at 1 µg/mL: compound 1 ug/ml; for inhibition at 2.5 µg/mL: compound 2.5 ug/ml; for inhibition at 10 µg/mL: compound 10 ug/ml; for inhibition at 25 µg/mL: compound 25 ug/ml; for inhibition at 0.1 µg/mL: compound 0.1 ug/ml
Text: It is well known that several plant lectins, when cultured in vitro with lymphocytes, stimulate cellular activation and proliferation. Concanavolin, (ConA) selectively stimulates the blastogenic response of T lymphocytes.
Six to 8 week old male C57Bl/6 mice were purchased from Harlan Sprague Dawley (Indianapolis, Ind.).
Spleens were removed and were homogenized to obtain a single cell suspension. Erythrocytes were lysed by hypotonic shock. Upon determination of the viability and concentration of the lymphoid cells, they were adjusted to 4×10^6 cells/ml in culture medium (RPMI-1640) supplemented with 10% fetal bovine serum; 100 ug/ml streptomycin; 100 U/ml penicillin, 0.2M hepes buffer; 5×10^-5 M 2-mercaptoethanol and 2 mM glutamine). seeded into microtiter plate wells at 2×10^5 cells/0.050 ml/well. To these cultures were added various doses of experimental compounds and ConA at a final concentration of 4 or 1 ug/ml. Control cultures consisted of cells, ConA and culture medium containing the vehicle, DMSO only. […] For the testing of the methyl 1,3-O-isopropylidene-6-O-n-heptyl-α-D-fructofuranoside compound indomethacin and NDGA were used as controls. All cultures were run in triplicate.
Solutions of compounds of the invention in DMSO were prepared and dilutions were made in culture medium. Assay concentrations were either: 1, 2.5, 10, 25, 100, 300 and 750 ug/ml or 0.001, 0.01, 0.1, 1, 2.5, 10, 25 and 100 ug/ml.
Cultures were incubated for 3 days at 37° C. in a humidified atmosphere of 5% of CO2 in air. For the last 18 hours of culture, 1 uCi of ^3 H-thymidine was also incubated in each well. The cells were precipitated by a multi-channel harvester. The amount of ^3 H-thymidine incorporated by the cultures, as a measure of cell proliferation, was measured in a liquid scintillation counter. The amount of radioactive incorporation is proportional to the amount of cellular proliferation in individual wells. The students T test was used to determine the significance of the difference between experimental and control values.

[1] = ConA 1 ug/ml, read-out: % change from control, ConA blastogenic response
[2] = ConA 1 ug/ml, compound 100 ug/ml, read-out: % change from control, ConA blastogenic response
[3] = ConA 4 ug/ml, read-out: % change from control, ConA blastogenic response
[4] = ConA 4 ug/ml, compound 100 ug/ml, read-out: % change from control, ConA blastogenic response

Row | Structure (SMILES) | inhibition at 100 µg/mL (100 ug/ml, read-out: strong inhibition of ConA stimulated T lymphocyte proliferation) | inhibition at 1 µg/mL [1] | inhibition at 2.5 µg/mL [1] | inhibition at 10 µg/mL [1] | inhibition at 25 µg/mL [1] | inhibition at 100 µg/mL [2] | inhibition at 1 µg/mL [3] | inhibition at 2.5 µg/mL [3] | inhibition at 10 µg/mL [3] | inhibition at 25 µg/mL [3] | inhibition at 100 µg/mL [4] | inhibition at 0.01 µg/mL (ConA 1 ug/ml, 0.01 ug/ml, read-out: % Change from Control (Table II)) | inhibition at 0.01 µg/mL (ConA 1 ug/ml, compound 0.01 ug/ml, read-out: % change from control, ConA blastogenic response) | inhibition at 0.1 µg/mL [1] | inhibition at 0.01 µg/mL (ConA 4 ug/ml, 0.01 ug/ml, read-out: % Change from Control (Table II)) | inhibition at 0.01 µg/mL (ConA 4 ug/ml, compound 0.01 ug/ml, read-out: % change from control, ConA blastogenic response) | inhibition at 0.1 µg/mL [3]
1 | CC1(C)OCC(C2OC3OC(C)(C)OC3C2NCCCO)O1 [IIk, 1,2:5,6-Di-O-isopropylidene-3-deoxy-3-amino-1'-(3'-hydroxy-n-propyl)-α-D-glucofuranose] | < 50% | 20% | 31% | 38% | 45% | 95% | 5% | 0% | 4% | 5% | 83% | – | – | – | – | – | –
2 | CCCCCCCC(=O)O[C@@H]1[C@@H](CO)O[C@@]2(OC)COC(C)(C)O[C@@H]12 [Ih, methyl 1,3-O-isopropylidene-4-O-octanoyl-α-D-fructofuranoside] | – | -61% | -63% | 4% | -39% | 74% | -16% | -8% | 22% | 14% | 90% | -12% | -32% | -29% | -18% | -29% | -14%
